Test results from patent US9738657B2, “Highly efficient polarizing agents for dynamic nuclear polarization” (Bruker Biospin S.A.S., priority 2013, dated 2017).
In brackets after ≈: the same amount, converted by molar mass.

Experiment: Solubility in Glycerol/H2O (60/40)
Details: Glycerol/H2O (60/40)

Molecule	Solubility in Glycerol/H2O (60/40) [mM]
α-{(7-Oxyl-3,11-dioxa-7-azadispiro[5.1.5.3]hexadec-15-yl)[(7-oxyl-3,11-dioxa-7-azadispiro[5.1.5.3]hexadec-15-yl)carbamoyl]amino}ω-methylpoly(ethane-1,2-diyloxy) [Compound 72]	>20
(4-{3-[1-(PEG)-1H-1,2,3-Triazol-4-yl]propyl}[(1-oxyl-2,2,6,6-tetramethylpiperidin-4-yl)carbamoyl]amino}-2,2,6,6-tetramethylpiperidin-1-yl)oxidanyl [Compound 61]	~20
(4-{(2,5,8,11-tetraoxatridecan-13-yl)[(1-oxyl-2,2,6,6-tetramethyl piperidin-4-yl)carbamoyl]amino}-2,2,6,6-tetramethylpiperidin-1-yl)oxidanyl [Compound 52]	~10
4,4-ureylene-di-(2,2,6,6-tetramethylpiperidinyloxyl) [bTUrea, reference compound]	~3
(15-{[(7-oxyl-3,11-dioxa-7-azadispiro[5.1.5.3]hexadec-15-yl)carbamoyl][2-(2-methoxyethoxy)ethyl]amino}-[3,11-dioxa-7-azadispiro[5.1.5.3]hexadec-7-yl])oxidanyl [Compound 57]	~25
(15-{[(7-oxyl-3,11-dioxa-7-azadispiro[5.1.5.3]hexadec-15-yl)carbamoyl][2-(2,5,8,11-tetraoxatridecan-13-ylamino)}-[3,11-dioxa-7-azadispiro[5.1.5.3]hexadec-7-yl])oxidanyl [Compound 58]	~25
(4-{[2-(2-methoxyethoxy)ethyl][(1-oxyl-2,2,6,6-tetramethylpiperidin-4-yl)carbamoyl]amino}-2,2,6,6-tetramethylpiperidin-1-yl)oxidanyl [Compound 51]	~10

Same assay, conditions: glycerol/water (60/40), aqueous with cosolvent or surfactant or cyclodextrin

Molecule	solubility [mM]
COCCOCCOCCOCCOC1CN(C2CC3(CCOCC3)N([O])C3(CCOCC3)C2)C(=O)N(C2CC3(CCOCC3)N([O])C3(CCOCC3)C2)C1 (stereo not shown) [Compound 70, 1,3-Bis(7-oxyl-3,11-dioxa-7-azadispiro[5.1.5.3]hexadec-15-yl)-5-(2,5,8,11-tetraoxatridecan-13-yloxy)tetrahydropyrimidin-2(1H)-one]	> 10
O=C(NC1CC2(CCOCC2)N(O)C2(CCOCC2)C1)N(CCOCCO)C1CC2(CCOCC2)N(O)C2(CCOCC2)C1 (stereo not shown) [Compound 71, (15-{[(7-Oxyl-3,11-dioxa-7-azadispiro[5.1.5.3]hexadec-15-yl)carbamoyl][2-(2-hydroxyethoxy)ethyl]amino}-[3,11-dioxa-7-azadispiro[5.1.5.3]hexadec-7-yl])oxidanyl]	> 20
[O]N1C2(CCOCC2)CC(NC(=O)NC2CC3(CCOCC3)N([O])C3(CCOCC3)C2)CC12CCOCC2 (stereo not shown) [Compound 56, (15-{[(7-Oxyl-3,11-dioxa-7-azadispiro[5.1.5.3]hexadec-15-yl)carbamoyl]amino}-[3,11-dioxa-7-azadispiro[5.1.5.3]hexadec-7-yl])oxidanyl]	~25 (≈ 13.4 mg/mL)
